Experiments:
[1] = system: BTK signaling in Ramos cells; test: BTK Ramos cellular assay (phosphorylation of BTK substrate PLCγ2); type: cell-based, human; settings: Homo sapiens, 1 hour compound, anti-IgM stimulation, read-out: BTK Inhibition (Ramos cellular)
Summary of the method: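 Serum-starved Ramos Burkitt lymphoma cells treated 1 h with compound at 1, 0.1, 0.01 or 0.001 μM final. B-cell receptor stimulated with 1 μg anti-human IgM F(ab′)2, 10 min on ice. Lysates (16 μg protein) immunoblotted for phospho-PLCγ2.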

[2] = system: BTK kinase activity (PLCγ2 phosphorylation) in Ramos cells; test: Washout experiment with Ramos cells; type: cell-based, human; settings: 100 nM compound for 1 hour, then washout
Method: Washout Experiment with Ramos Cells
Ramos cells were serum starved for one hour in RPMI media+1% glutamine at 37° C. After starvation, Ramos cells were treated with 100 nM compound diluted in serum free RPMI media for 1 hour. After compound treatment, the media was removed and cells were washed with compound-free media. Subsequently, Ramos cells were washed every 2 hours and resuspended in fresh compound-free media. Cells were collected at specified timepoints, treated with 1 ug anti-human IgM (Southern Biotech cat #2022-01) for 10 minutes on ice to induce BCR signaling and then washed in PBS. Ramos cells were then lysed in Cell Extraction Buffer (Invitrogen FNN0011) supplemented with Roche complete protease inhibitor tablets (Roche 11697498001) and phosphatase inhibitors (Roche 04 906 837 001) and 18 ug total protein lysate was loaded in each lane. Inhibition of BTK kinase activity was assayed by measuring its substrate (PLCγ2) phosphorylation by western blot with phospho-specific antibodies from Cell Signaling Technologies cat #3871. The results of this experiment with compounds I-2, I-4 and I-7 are depicted in FIGS. 1, 2 and 3.

TEC kinase = TEC kinase (Homo sapiens (Human), UniProt P42680); test: Mass spectrometry for TEC kinase (tryptic digest); type: binding; settings: 3 hrs at 10× excess, tryptic digestion
Method: Mass Spectrometry for TEC Kinase (Compound I-2)
(§1) TEC kinase (45 pmols; Invitrogen) was incubated with (I-2) (450 pmols) for 3 hrs at 10× excess prior to tryptic digestion. Iodoacetamide was used as the alkylating agent after compound incubation. […] For tryptic digests a 5 ul aliquot (7.5 pmols) was diluted with 15 ul of 0.1% TFA prior to micro C18 Zip Tipping directly onto the MALDI target using alpha cyano-4-hydroxy cinnamic acid as the matrix (5 mg/ml in 0.1% TFA:Acetonitrile 50:50).
(§2) For tryptic digests the instrument was set in Reflectron mode with a pulsed extraction setting of 2200. Calibration was done using the Laser Biolabs Pep Mix standard ([…], 1296.69, 1672.92, 2093.09, 2465.20). For CID/PSD analysis the peptide was selected using cursors to set ion gate timing and fragmentation occurred at a laser power about 20% higher and He was used as the collision gas for CID. Calibration for fragments was done using the P14R fragmentation calibration for the Curved field Reflectron.
as §1, with “(I-4)” for “(I-2)”
as §2, with “1800.” for “2200.”
TEC kinase (45 pmols; Invitrogen) was incubated with […] (450 pmols) for 3 hrs at 10× excess prior to tryptic digestion. […]

BTK = BTK (Homo sapiens (Human), UniProt Q06187); test: Mass spectrometry for BTK (intact protein); type: binding; settings: 1 hr, 10× fold excess of compound
Method: Mass Spectrometry for BTK
Intact BTK was incubated for 1 hr at a 10× fold excess of I-7 to protein. Aliquots (2 μl) of the samples were diluted with 10 μl of 0.1% TFA prior to micro C4 ZipTipping directly onto the MALDI target using Sinapinic acid as the desorption matrix (10 mg/ml in 0.1% TFA:Acetonitrile 20:80).

JAK3 kinase = JAK3 kinase (Homo sapiens (Human), UniProt P52333); test: Mass spectrometry for Janus-3 kinase (JAK3); type: binding; settings: 3 hrs at 10× excess, tryptic digestion
Method: Mass Spectrometry for Janus-3 Kinase (JAK3)
JAK3 kinase (33 pmols; Invitrogen) was incubated with (I-7) (327 pmols) for 3 hrs at 10× excess prior to tryptic digestion. Iodoacetamide was used as the alkylating agent after compound incubation. For tryptic digests a 5 ul aliquot (5.5 pmols) was diluted with 15 ul of 0.1% TFA prior to micro C18 Zip Tipping directly onto the MALDI target using alpha cyano-4-hydroxy cinnamic acid as the matrix (5 mg/ml in 0.1% TFA:Acetonitrile 50:50).
as §2

BTK in Ramos cells [3] = biological target: T1, BTK in Ramos cells (Homo sapiens (Human), UniProt Q06187); test: Washout experiment with I-7 and probe compound I-215 in Ramos cells; type: cell-based; settings: 0.1 μM, 1 hour, then washout
Method: Washout Experiment with I-7 and Probe Compound I-215
Ramos cells were incubated with 0.1 μM I-7 or a reversible BTK inhibitor control compound in serum free media for 1 hour at 37° C. The cells were then washed in compound-free media and lysed 0, 4, 6, or 8 hours after compound removal. Cell lysates were incubated with 1 μM I-215 for 1 hour at room temperature, then overnight at 4° C. with streptavidin-coupled agarose beads. Protein was boiled off the beads and BTK association was assessed by western blot. […] In contrast, with the reversible inhibitor control, 45% of BTK protein is unbound and available to the probe at 0 hours and by 4 hours 100% of BTK protein is unbound and available to bind the probe. All samples were normalized to the DMSO-treated cells harvested at 0 hours.

BTK in Ramos cells [4] = biological target: T1, BTK in Ramos cells; test: BTK occupancy from in vitro samples by ELISA (Ramos cells); type: cell-based; settings: ELISA with probe I-215
Text: Measuring BTK Occupancy from In Vitro Samples by ELISA
In order to determine the amount of free BTK in cell or tissue lysates, an ELISA protocol was employed that utilizes a biotinylated probe compound that binds only to free, unoccupied BTK. The conjugated biotin is captured on a streptavidin-coated ELISA plate and detected with a mouse anti-BTK antibody (Becton Dickinson, Franklin Lakes, N.J., USA) and a secondary goat anti-mouse HRP antibody (Zymed, South San Francisco, Calif., USA).
All samples were prepared with equal concentrations of Biorad lysis buffer (Hercules, Calif., USA), 0.5% bovine serum albumin in PBS with 0.05% Tween-20 to give a final concentration of 1 μM I-215. Samples were incubated in a mixing plate for 1 hr at room temperature while shaking to allow probe compound I-215 to bind to free BTK. After incubation with I-215, samples were added to a washed, streptavidin-coated ELISA plate (Pierce, Rockford, Ill., USA) and incubated for 1 hr at room temperature while shaking. The plate was then washed with PBS containing 0.05% Tween-20 using an automatic plate washer. Anti-BTK antibody was prepared at 1:1000 dilution in 0.5% BSA in PBS (0.05% Tween-20) and added to the ELISA plate. The plate was incubated for 1 hr at room temperature while shaking. The plate was washed as described above and the secondary HRP antibody was prepared at 1:5000 dilution in 0.5% BSA in PBS (0.05% Tween-20). The plate was incubated and washed as described above. TMB was added to the plate, and OD650 was monitored until reaching 1 OD unit. The reaction was then stopped with addition of H2SO4. The plate was analyzed using Gen 5 software, and a 4 Parameter Logistic curve was employed to quantitate samples. Recombinant BTK (Invitrogen, Carlsbad, Calif., USA) was used for the standard curve.
A concentration designated as “A” is greater than 1 nM; a concentration designated as “B” is greater than 10 nM; and a concentration designated as “C” is greater than 50 nM.

T1 sequence (Q06187 whole entry): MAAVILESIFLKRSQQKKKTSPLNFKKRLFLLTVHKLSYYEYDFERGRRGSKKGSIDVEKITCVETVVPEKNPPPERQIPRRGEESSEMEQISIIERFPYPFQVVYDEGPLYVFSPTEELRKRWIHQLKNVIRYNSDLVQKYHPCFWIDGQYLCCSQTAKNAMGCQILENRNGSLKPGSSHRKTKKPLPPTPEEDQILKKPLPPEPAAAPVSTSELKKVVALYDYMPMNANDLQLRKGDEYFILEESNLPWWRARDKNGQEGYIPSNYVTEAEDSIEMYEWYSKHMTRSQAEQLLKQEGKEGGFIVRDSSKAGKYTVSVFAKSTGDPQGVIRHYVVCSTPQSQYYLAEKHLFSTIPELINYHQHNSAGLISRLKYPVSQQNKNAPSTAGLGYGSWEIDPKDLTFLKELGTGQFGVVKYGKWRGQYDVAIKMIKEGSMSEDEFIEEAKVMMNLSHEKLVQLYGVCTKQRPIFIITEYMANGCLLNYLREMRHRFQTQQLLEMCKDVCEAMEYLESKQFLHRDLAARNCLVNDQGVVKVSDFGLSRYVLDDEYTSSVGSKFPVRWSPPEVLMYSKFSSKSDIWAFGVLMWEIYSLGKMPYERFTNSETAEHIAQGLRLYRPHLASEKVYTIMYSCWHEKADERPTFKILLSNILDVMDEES
JAK3 kinase, sequence (P52333 whole entry): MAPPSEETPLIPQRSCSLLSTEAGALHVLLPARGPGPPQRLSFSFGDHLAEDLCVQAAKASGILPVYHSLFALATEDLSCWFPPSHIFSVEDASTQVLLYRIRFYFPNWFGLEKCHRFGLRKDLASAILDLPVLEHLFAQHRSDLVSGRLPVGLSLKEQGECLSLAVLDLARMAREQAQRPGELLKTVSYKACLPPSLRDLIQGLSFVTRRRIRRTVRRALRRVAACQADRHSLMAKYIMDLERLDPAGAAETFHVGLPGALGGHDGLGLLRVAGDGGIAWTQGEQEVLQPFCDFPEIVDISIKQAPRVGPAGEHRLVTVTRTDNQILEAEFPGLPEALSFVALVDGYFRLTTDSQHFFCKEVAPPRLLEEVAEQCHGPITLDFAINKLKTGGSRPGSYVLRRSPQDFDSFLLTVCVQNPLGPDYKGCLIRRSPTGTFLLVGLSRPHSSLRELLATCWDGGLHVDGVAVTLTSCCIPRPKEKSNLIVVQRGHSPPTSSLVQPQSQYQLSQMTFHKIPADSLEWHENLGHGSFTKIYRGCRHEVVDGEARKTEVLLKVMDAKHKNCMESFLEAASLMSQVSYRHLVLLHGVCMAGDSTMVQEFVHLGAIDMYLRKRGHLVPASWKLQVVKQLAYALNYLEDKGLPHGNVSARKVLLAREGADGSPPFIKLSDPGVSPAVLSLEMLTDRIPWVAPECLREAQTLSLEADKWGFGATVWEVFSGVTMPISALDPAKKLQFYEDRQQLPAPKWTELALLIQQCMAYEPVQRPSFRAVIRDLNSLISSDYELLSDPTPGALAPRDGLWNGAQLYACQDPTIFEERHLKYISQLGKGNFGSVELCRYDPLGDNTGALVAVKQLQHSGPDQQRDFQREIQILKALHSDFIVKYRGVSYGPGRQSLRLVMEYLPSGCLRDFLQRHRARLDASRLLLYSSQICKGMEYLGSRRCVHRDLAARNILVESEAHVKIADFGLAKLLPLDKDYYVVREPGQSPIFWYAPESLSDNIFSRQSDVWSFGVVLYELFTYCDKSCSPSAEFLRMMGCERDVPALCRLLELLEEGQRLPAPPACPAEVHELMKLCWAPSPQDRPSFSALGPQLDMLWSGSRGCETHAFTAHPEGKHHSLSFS
TEC kinase, sequence (P42680 whole entry): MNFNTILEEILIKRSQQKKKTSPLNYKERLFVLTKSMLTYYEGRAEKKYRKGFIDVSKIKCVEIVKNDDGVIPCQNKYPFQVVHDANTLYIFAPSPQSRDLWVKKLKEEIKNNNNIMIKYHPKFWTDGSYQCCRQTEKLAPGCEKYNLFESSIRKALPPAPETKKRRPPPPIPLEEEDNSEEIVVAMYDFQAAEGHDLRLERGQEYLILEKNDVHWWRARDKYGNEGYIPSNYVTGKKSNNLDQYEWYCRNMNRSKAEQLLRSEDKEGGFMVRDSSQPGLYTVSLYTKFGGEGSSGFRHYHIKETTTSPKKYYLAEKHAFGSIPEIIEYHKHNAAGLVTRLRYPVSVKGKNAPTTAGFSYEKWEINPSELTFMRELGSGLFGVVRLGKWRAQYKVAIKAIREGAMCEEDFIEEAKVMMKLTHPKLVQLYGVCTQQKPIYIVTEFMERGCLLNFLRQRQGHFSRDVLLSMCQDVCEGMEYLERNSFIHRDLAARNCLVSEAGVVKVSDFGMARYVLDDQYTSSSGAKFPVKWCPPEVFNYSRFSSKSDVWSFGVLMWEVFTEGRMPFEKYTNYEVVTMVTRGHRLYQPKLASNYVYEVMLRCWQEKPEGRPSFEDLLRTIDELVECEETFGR
BTK, sequence (Q06187 whole entry): as the sequence (Q06187 whole entry) above

| IC50 [1] | covalent modification of TEC kinase peptide GCLLNFLR by mass spectrometry (TEC kinase) | modification of BTK by mass spectrometry (BTK) | modification of JAK3 kinase by mass spectrometry (JAK3 kinase) | time BTK protein remains occupied after compound removal (BTK in Ramos cells [3]) | >50% occupancy (concentration) (BTK in Ramos cells [4]) | >90% occupancy (concentration) (BTK in Ramos cells [4]) | Compound | BTK Inhibition Type [2] |
| --- | --- | --- | --- | --- | --- | --- | --- | --- |
| 10 to 100 nM | reaction was complete |  |  |  |  |  | Cc1cccc(Nc2nc(Nc3cccc(NC(=O)/C=C/CN(C)C)c3)ncc2F)c1 [Compound I-4, (E)-4-(dimethylamino)-N-(3-(5-fluoro-4-(m-tolylamino)pyrimidin-2-ylamino)phenyl)but-2-enamide] | irreversible |
| < 10 nM | reaction was complete | complete modification | not entirely complete | over 8 hours | A (greater than 1 nM) | B (greater than 10 nM) | C=CC(=O)Nc1cccc(Nc2nc(Nc3ccccc3)ncc2C)c1 [Compound I-7, N-(3-(5-methyl-2-(phenylamino)pyrimidin-4-ylamino)phenyl) acrylamide] | irreversible |
|  |  |  | measurable modification |  |  |  | Cc1cnc(Nc2cccc(S(N)(=O)=O)c2)nc1Nc1ccc2c(c1)CCN(C(=O)CCl)C2 [Compound I-11, 3-(4-(2-(2-chloroacetyl)-1,2,3,4-tetrahydroisoquinolin-6-ylamino)-5-methylpyrimidin-2-ylamino)benzenesulfonamide] |  |
